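Following 48 hours of exposure in 96-well plates, responses at five concentrations were used to interpolate endpoints linearly. GI50 is the concentration that inhibits growth by half. The concentration for full growth arrest is given as TGI.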
Tests used:
Experiment in all cases: DTP human tumour cell line panel, 48 h
M14 melanoma = tested on: M14 melanoma
SN12C renal = tested on: SN12C renal
SK-MEL-28 melanoma = tested on: SK-MEL-28 melanoma
PC-3 prostate = tested on: PC-3 prostate
SK-MEL-2 melanoma = tested on: SK-MEL-2 melanoma
NCI-H522 lung = tested on: NCI-H522 lung
T-47D breast = tested on: T-47D breast
NCI-H23 lung = tested on: NCI-H23 lung
HL-60(TB) leukemia = tested on: HL-60(TB) leukemia
OVCAR-3 ovarian = tested on: OVCAR-3 ovarian
SK-MEL-5 melanoma = tested on: SK-MEL-5 melanoma
A549 NSCLC = tested on: A549 NSCLC
TK-10 renal = tested on: TK-10 renal
NCI-H460 lung = tested on: NCI-H460 lung
U251 CNS = tested on: U251 CNS
HCT-15 colon = tested on: HCT-15 colon
K-562 leukemia = tested on: K-562 leukemia
HCT-116 colon = tested on: HCT-116 colon
UO-31 renal = tested on: UO-31 renal
RXF 393 renal = tested on: RXF 393 renal
SF-295 CNS = tested on: SF-295 CNS
ACHN renal = tested on: ACHN renal
HT29 colon = tested on: HT29 colon
OVCAR-8 ovarian = tested on: OVCAR-8 ovarian
UACC-62 melanoma = tested on: UACC-62 melanoma
NCI/ADR-RES ovarian = tested on: NCI/ADR-RES ovarian
SK-OV-3 ovarian = tested on: SK-OV-3 ovarian
786-0 renal = tested on: 786-0 renal
HCC-2998 colon = tested on: HCC-2998 colon
DU-145 prostate = tested on: DU-145 prostate
IGROV1 ovarian = tested on: IGROV1 ovarian
MDA-MB-435 = tested on: MDA-MB-435
LOX IMVI melanoma = tested on: LOX IMVI melanoma
SW-620 colon = tested on: SW-620 colon
SF-268 CNS = tested on: SF-268 CNS
MOLT-4 leukemia = tested on: MOLT-4 leukemia
CCRF-CEM leukemia = tested on: CCRF-CEM leukemia
BT-549 breast = tested on: BT-549 breast
SF-539 CNS = tested on: SF-539 CNS
SNB-75 CNS = tested on: SNB-75 CNS
KM12 colon = tested on: KM12 colon
HOP-92 NSCLC = tested on: HOP-92 NSCLC
OVCAR-4 ovarian = tested on: OVCAR-4 ovarian
MALME-3M melanoma = tested on: MALME-3M melanoma
EKVX NSCLC = tested on: EKVX NSCLC
SR leukemia = tested on: SR leukemia
MDA-MB-231 breast = tested on: MDA-MB-231 breast
CAKI-1 renal = tested on: CAKI-1 renal
SNB-19 CNS = tested on: SNB-19 CNS
UACC-257 melanoma = tested on: UACC-257 melanoma
COLO 205 colon = tested on: COLO 205 colon
OVCAR-5 ovarian = tested on: OVCAR-5 ovarian
RPMI-8226 leukemia = tested on: RPMI-8226 leukemia
NCI-H226 lung = tested on: NCI-H226 lung

Cc1ccc2[nH]c3c(c2c1)N=c1ccccc1=NO3
GI50 (M14 melanoma): 48 µM
TGI (M14 melanoma): > 100 µM
GI50 (SN12C renal): 36.5 µM
TGI (SN12C renal): > 100 µM
GI50 (SK-MEL-28 melanoma): > 100 µM
TGI (SK-MEL-28 melanoma): > 100 µM
GI50 (PC-3 prostate): 57 µM
TGI (PC-3 prostate): > 100 µM
GI50 (SK-MEL-2 melanoma): > 100 µM
TGI (SK-MEL-2 melanoma): > 100 µM
GI50 (NCI-H522 lung): 26 µM
TGI (NCI-H522 lung): > 100 µM
GI50 (T-47D breast): 74.4 µM
TGI (T-47D breast): > 100 µM
GI50 (NCI-H23 lung): 75.9 µM
TGI (NCI-H23 lung): > 100 µM
GI50 (HL-60(TB) leukemia): > 100 µM
TGI (HL-60(TB) leukemia): > 100 µM
GI50 (OVCAR-3 ovarian): 25.8 µM
TGI (OVCAR-3 ovarian): > 100 µM
GI50 (SK-MEL-5 melanoma): 40.9 µM
TGI (SK-MEL-5 melanoma): > 100 µM
GI50 (A549 NSCLC): > 100 µM
TGI (A549 NSCLC): > 100 µM
GI50 (TK-10 renal): 38.2 µM
TGI (TK-10 renal): > 100 µM
GI50 (NCI-H460 lung): 45.9 µM
TGI (NCI-H460 lung): > 100 µM
GI50 (U251 CNS): 53.7 µM
TGI (U251 CNS): > 100 µM
GI50 (HCT-15 colon): > 100 µM
TGI (HCT-15 colon): > 100 µM
GI50 (K-562 leukemia): > 100 µM
TGI (K-562 leukemia): > 100 µM
GI50 (HCT-116 colon): 83.8 µM
TGI (HCT-116 colon): > 100 µM
GI50 (UO-31 renal): 42.2 µM
TGI (UO-31 renal): > 100 µM
GI50 (RXF 393 renal): 47.6 µM
TGI (RXF 393 renal): > 100 µM
GI50 (SF-295 CNS): 23.8 µM
TGI (SF-295 CNS): 84.9 µM
GI50 (ACHN renal): 32.3 µM
TGI (ACHN renal): > 100 µM
GI50 (HT29 colon): 76.1 µM
TGI (HT29 colon): > 100 µM
GI50 (OVCAR-8 ovarian): 17.5 µM
TGI (OVCAR-8 ovarian): 43 µM
GI50 (UACC-62 melanoma): 36.5 µM
TGI (UACC-62 melanoma): > 100 µM
GI50 (NCI/ADR-RES ovarian): 22.7 µM
TGI (NCI/ADR-RES ovarian): 71.2 µM
GI50 (SK-OV-3 ovarian): 29.9 µM
TGI (SK-OV-3 ovarian): > 100 µM
GI50 (786-0 renal): 35 µM
TGI (786-0 renal): > 100 µM
GI50 (HCC-2998 colon): 81.7 µM
TGI (HCC-2998 colon): > 100 µM
GI50 (DU-145 prostate): 34.6 µM
TGI (DU-145 prostate): > 100 µM
GI50 (IGROV1 ovarian): 32.6 µM
TGI (IGROV1 ovarian): > 100 µM
GI50 (MDA-MB-435): > 100 µM
TGI (MDA-MB-435): > 100 µM
GI50 (LOX IMVI melanoma): 97.8 µM
TGI (LOX IMVI melanoma): > 100 µM
GI50 (SW-620 colon): > 100 µM
TGI (SW-620 colon): > 100 µM
GI50 (SF-268 CNS): 23.1 µM
TGI (SF-268 CNS): 55.8 µM
GI50 (MOLT-4 leukemia): > 100 µM
TGI (MOLT-4 leukemia): > 100 µM
GI50 (CCRF-CEM leukemia): > 100 µM
TGI (CCRF-CEM leukemia): > 100 µM
GI50 (BT-549 breast): 14.2 µM
TGI (BT-549 breast): 51.6 µM
GI50 (SF-539 CNS): 10.6 µM
TGI (SF-539 CNS): 27.6 µM
GI50 (SNB-75 CNS): 25.4 µM
TGI (SNB-75 CNS): > 100 µM
GI50 (KM12 colon): 34.8 µM
TGI (KM12 colon): > 100 µM
GI50 (HOP-92 NSCLC): > 100 µM
TGI (HOP-92 NSCLC): > 100 µM
GI50 (OVCAR-4 ovarian): 27.9 µM
TGI (OVCAR-4 ovarian): > 100 µM
GI50 (MALME-3M melanoma): 20 µM
TGI (MALME-3M melanoma): 54.1 µM
GI50 (EKVX NSCLC): 26.2 µM
TGI (EKVX NSCLC): > 100 µM
GI50 (SR leukemia): 33.4 µM
TGI (SR leukemia): > 100 µM
GI50 (MDA-MB-231 breast): 35.9 µM
TGI (MDA-MB-231 breast): > 100 µM
GI50 (CAKI-1 renal): 10.5 µM
TGI (CAKI-1 renal): 47.6 µM
GI50 (SNB-19 CNS): 32.6 µM
TGI (SNB-19 CNS): > 100 µM
GI50 (UACC-257 melanoma): 70.6 µM
TGI (UACC-257 melanoma): > 100 µM
GI50 (COLO 205 colon): 31.9 µM
TGI (COLO 205 colon): > 100 µM
GI50 (OVCAR-5 ovarian): > 100 µM
TGI (OVCAR-5 ovarian): > 100 µM
GI50 (RPMI-8226 leukemia): > 100 µM
TGI (RPMI-8226 leukemia): > 100 µM
GI50 (NCI-H226 lung): 70 µM
TGI (NCI-H226 lung): > 100 µM

From PubChem BioAssay (NCI)
